Results: ChEMBL document CHEMBL1909046, “DrugMatrix in vitro pharmacology data”

Assays:
Cannabinoid receptor 1 = Cannabinoid receptor 1 (Homo sapiens, UniProt P21554); type: cell membranes, Chem-1, Membrane; settings: chem-1; also: in other assays of this panel Not Active means under 50% inhibition at 10 µM
[1] = DRUGMATRIX: GABAA, Muscimol, Central radioligand binding (ligand: [3H] Muscimol); type: cell membranes, Rattus norvegicus, Wistar, Brain, Membrane; settings: Not Active = under 50% inhibition at 10 µM
[2] = target: T1, Muscarinic acetylcholine receptor M2 (Homo sapiens, UniProt P08172); type: cell membranes, CHO-K1, Membrane; settings: cho-k1; also: in other assays of this panel Not Active means under 50% inhibition at 10 µM
T1 sequence (P08172 whole entry): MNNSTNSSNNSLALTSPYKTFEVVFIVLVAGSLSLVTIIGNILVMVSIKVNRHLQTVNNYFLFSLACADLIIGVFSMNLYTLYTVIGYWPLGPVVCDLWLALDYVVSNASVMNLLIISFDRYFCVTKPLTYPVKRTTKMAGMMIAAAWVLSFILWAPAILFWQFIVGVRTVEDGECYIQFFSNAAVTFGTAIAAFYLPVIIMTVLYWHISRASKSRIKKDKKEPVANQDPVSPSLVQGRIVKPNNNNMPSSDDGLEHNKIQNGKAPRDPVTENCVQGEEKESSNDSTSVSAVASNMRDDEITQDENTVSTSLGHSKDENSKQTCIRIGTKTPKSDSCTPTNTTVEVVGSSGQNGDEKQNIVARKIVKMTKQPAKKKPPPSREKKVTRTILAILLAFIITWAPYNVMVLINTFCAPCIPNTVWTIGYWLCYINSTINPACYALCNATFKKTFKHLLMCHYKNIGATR

[3] = target: T2, C-C chemokine receptor type 4 (Homo sapiens, UniProt P51679); type: cell membranes, Membrane; settings: chem-1; also: in other assays of this panel Not Active means under 50% inhibition at 10 µM
T2 sequence (P51679 whole entry): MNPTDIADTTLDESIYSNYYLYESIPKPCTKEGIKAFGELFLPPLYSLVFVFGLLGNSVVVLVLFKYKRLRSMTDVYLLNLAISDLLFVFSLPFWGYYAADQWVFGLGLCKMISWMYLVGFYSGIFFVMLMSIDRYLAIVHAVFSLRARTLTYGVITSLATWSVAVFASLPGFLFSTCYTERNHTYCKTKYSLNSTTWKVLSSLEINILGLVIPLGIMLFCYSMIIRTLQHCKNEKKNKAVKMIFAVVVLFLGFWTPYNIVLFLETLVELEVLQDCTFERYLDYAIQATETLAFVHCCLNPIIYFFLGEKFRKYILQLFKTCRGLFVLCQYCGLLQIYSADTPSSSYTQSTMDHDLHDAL

[4] = target: Mitogen-activated protein kinase 1 (Homo sapiens, UniProt P28482); assay: DRUGMATRIX: Protein Serine/Threonine Kinase, ERK2 enzyme inhibition (substrate: Myelin Basic Protein); design: species or system Escherichia coli; settings: Not Active = under 50% inhibition at 10 µM
Cytochrome P450 2D6 = Cytochrome P450 2D6 (Homo sapiens, UniProt P10635); settings: bti-tn-5b1-4; also: in other assays of this panel Not Active means under 50% inhibition at 10 µM
Cytochrome P450 1A2 = target: T3, Cytochrome P450 1A2 (Homo sapiens, UniProt P05177); settings: bti-tn-5b1-4; also: in other assays of this panel Not Active means under 50% inhibition at 10 µM
T3 sequence (P05177 whole entry): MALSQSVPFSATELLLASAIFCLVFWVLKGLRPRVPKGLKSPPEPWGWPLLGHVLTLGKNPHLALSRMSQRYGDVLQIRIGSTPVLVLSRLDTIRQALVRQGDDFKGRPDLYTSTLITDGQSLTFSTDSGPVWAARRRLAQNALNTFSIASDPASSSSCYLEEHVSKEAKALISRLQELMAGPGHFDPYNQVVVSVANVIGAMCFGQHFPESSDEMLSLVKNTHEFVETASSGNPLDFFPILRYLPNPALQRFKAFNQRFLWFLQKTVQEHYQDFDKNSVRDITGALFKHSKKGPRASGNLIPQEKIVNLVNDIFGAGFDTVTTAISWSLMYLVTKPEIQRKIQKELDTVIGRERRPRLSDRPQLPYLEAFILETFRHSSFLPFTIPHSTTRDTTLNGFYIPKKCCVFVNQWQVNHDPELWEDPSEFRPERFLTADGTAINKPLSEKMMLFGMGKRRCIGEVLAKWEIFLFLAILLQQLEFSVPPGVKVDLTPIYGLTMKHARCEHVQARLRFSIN

Chain of Cannabinoid receptor 1 (P21554 whole entry): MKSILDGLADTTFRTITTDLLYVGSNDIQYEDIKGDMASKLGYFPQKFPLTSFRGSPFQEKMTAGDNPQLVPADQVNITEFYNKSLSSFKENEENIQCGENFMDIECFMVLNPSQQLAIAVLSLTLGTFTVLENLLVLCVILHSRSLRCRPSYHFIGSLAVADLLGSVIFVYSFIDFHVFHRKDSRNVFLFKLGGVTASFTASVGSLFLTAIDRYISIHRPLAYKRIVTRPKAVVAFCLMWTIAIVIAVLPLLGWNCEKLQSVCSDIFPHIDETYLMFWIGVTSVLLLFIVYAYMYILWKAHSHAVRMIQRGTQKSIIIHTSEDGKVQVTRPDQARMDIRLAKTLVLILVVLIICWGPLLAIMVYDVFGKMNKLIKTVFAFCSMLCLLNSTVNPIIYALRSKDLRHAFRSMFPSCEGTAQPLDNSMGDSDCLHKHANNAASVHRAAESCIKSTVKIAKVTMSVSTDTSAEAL
Chain of Cytochrome P450 2D6 (P10635 whole entry): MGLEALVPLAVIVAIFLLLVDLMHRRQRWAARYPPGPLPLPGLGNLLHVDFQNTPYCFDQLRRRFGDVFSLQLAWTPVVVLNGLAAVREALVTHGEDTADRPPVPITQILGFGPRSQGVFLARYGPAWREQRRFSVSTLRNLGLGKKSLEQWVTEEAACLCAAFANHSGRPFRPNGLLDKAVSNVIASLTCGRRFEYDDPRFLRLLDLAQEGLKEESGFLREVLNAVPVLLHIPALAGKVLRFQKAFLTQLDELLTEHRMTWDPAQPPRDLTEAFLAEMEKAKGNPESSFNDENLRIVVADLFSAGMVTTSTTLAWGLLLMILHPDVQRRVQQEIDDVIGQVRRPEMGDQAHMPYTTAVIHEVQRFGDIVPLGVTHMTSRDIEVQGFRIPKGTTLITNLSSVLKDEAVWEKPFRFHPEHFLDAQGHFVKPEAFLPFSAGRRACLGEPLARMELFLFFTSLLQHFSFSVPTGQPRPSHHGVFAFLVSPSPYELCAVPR
Chain of Mitogen-activated protein kinase 1 (P28482 whole entry): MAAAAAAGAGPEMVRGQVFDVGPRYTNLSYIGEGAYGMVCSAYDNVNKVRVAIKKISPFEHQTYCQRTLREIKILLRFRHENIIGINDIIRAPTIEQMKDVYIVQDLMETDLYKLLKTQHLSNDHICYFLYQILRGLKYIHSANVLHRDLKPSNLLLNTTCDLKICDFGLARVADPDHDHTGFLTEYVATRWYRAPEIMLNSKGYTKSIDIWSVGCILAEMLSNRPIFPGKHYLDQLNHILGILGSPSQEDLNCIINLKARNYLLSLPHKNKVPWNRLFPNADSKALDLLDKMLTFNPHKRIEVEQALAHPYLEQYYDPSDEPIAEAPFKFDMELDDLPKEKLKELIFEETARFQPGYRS

CN1C(=O)COc2c(C(=O)NC3CN4CCC3CC4)cc(Cl)cc21 (stereo not given) [AZASETRON]
Not Active: IC50 (Cannabinoid receptor 1) | IC50 [1] | Ki [1] | IC50 [2] | IC50 [3] | IC50 [4] | IC50 (Cytochrome P450 2D6) | Ki (Cytochrome P450 2D6) | IC50 (Cytochrome P450 1A2) | Ki (Cytochrome P450 1A2)

O=C(C1CCCCC1)N1CC(=O)N2CCc3ccccc3C2C1 (stereo not given) [PRAZIQUANTEL]
Not Active: IC50 (Cannabinoid receptor 1) | IC50 [1] | Ki [1] | IC50 [2] | IC50 [3] | IC50 [4] | IC50 (Cytochrome P450 2D6) | Ki (Cytochrome P450 2D6) | IC50 (Cytochrome P450 1A2) | Ki (Cytochrome P450 1A2)

C[C@]12CC[C@@H]3c4ccc(OC(=O)c5ccccc5)cc4CC[C@H]3[C@@H]1CC[C@@H]2O [ESTRADIOL BENZOATE]
Not Active: IC50 (Cannabinoid receptor 1) | IC50 [1] | Ki [1] | IC50 [2] | IC50 [3] | IC50 [4] | IC50 (Cytochrome P450 2D6) | Ki (Cytochrome P450 2D6) | IC50 (Cytochrome P450 1A2) | Ki (Cytochrome P450 1A2)

C[N+](C)(C)CCO.[Cl-] [CHOLINE CHLORIDE]
Not Active: IC50 (Cannabinoid receptor 1) | IC50 [1] | Ki [1] | IC50 [2] | IC50 [3] | IC50 [4] | IC50 (Cytochrome P450 2D6) | Ki (Cytochrome P450 2D6) | IC50 (Cytochrome P450 1A2) | Ki (Cytochrome P450 1A2)

C[C@@]12C(=O)OC(=O)[C@]1(C)[C@H]1CC[C@@H]2O1 [CANTHARIDIN]
Not Active: IC50 (Cannabinoid receptor 1) | IC50 [1] | Ki [1] | IC50 [2] | IC50 [3] | IC50 [4] | IC50 (Cytochrome P450 2D6) | Ki (Cytochrome P450 2D6) | IC50 (Cytochrome P450 1A2) | Ki (Cytochrome P450 1A2)

O=S(=O)([O-])CCS.[Na+] [MESNA]
Not Active: IC50 (Cannabinoid receptor 1) | IC50 [1] | Ki [1] | IC50 [2] | IC50 [3] | IC50 [4] | IC50 (Cytochrome P450 2D6) | Ki (Cytochrome P450 2D6) | IC50 (Cytochrome P450 1A2) | Ki (Cytochrome P450 1A2)

CCN[C@@H]1C[C@H](N)[C@@H](O[C@H]2OC(CN)=CC[C@H]2N)[C@H](O)[C@H]1O[C@H]1OC[C@](C)(O)[C@H](NC)[C@H]1O [NETILMICIN]
Not Active: IC50 (Cannabinoid receptor 1) | IC50 [1] | Ki [1] | IC50 [2] | IC50 [3] | IC50 [4] | IC50 (Cytochrome P450 2D6) | Ki (Cytochrome P450 2D6) | IC50 (Cytochrome P450 1A2) | Ki (Cytochrome P450 1A2)

C#C[C@]1(OC(C)=O)CC[C@H]2[C@@H]3CCC4=CC(=O)CC[C@@H]4[C@H]3CC[C@@]21C [NORETHINDRONE ACETATE]
Not Active: IC50 (Cannabinoid receptor 1) | IC50 [1] | Ki [1] | IC50 [2] | IC50 [3] | IC50 [4] | IC50 (Cytochrome P450 2D6) | Ki (Cytochrome P450 2D6) | IC50 (Cytochrome P450 1A2) | Ki (Cytochrome P450 1A2)

CC(=O)Nc1c(I)c(NC(C)=O)c(I)c(C(=O)O)c1I [DIATRIZOIC ACID]
Not Active: IC50 (Cannabinoid receptor 1) | IC50 [1] | Ki [1] | IC50 [2] | IC50 [3] | IC50 [4] | IC50 (Cytochrome P450 2D6) | Ki (Cytochrome P450 2D6) | IC50 (Cytochrome P450 1A2) | Ki (Cytochrome P450 1A2)

Cc1cc(=O)n(-c2ccccc2)n1C [ANTIPYRINE]
Not Active: IC50 (Cannabinoid receptor 1) | IC50 [1] | Ki [1] | IC50 [2] | IC50 [3] | IC50 [4] | IC50 (Cytochrome P450 2D6) | Ki (Cytochrome P450 2D6) | IC50 (Cytochrome P450 1A2) | Ki (Cytochrome P450 1A2)

CC1(C)O[C@@H]2C[C@H]3[C@@H]4C[C@H](F)C5=CC(=O)CC[C@]5(C)[C@H]4[C@@H](O)C[C@]3(C)[C@]2(C(=O)CO)O1 [FLURANDRENOLIDE]
Not Active: IC50 (Cannabinoid receptor 1) | IC50 [1] | Ki [1] | IC50 [2] | IC50 [3] | IC50 [4] | IC50 (Cytochrome P450 2D6) | Ki (Cytochrome P450 2D6) | IC50 (Cytochrome P450 1A2) | Ki (Cytochrome P450 1A2)
